test system: UT7/EPO Cell line; experiment: Cell Proliferation Assay (UT7/EPO, ViaLight Plus); format: cell-based, human; conditions: proliferative effect; compounds at 10 uM; UT7/EPO cells starved of EPO overnight; 72 hours at 37° C.; ViaLight Plus kit
Description: The primary testing for the examplfied compounds was performed in UT7/EPO Cell line. UT7/EPO is human leukemia cell line, obtained from Dr. Norio Komatsu (Blood, Vol 82 (2), pp 456-464, 1993). These cells express endogenous EPO receptor and are dependant upon EPO for growth and proliferation. Briefly, the cells were starved of EPO overnight and plated in 96 or 384 well plates. The compounds were added to the cells at 10 uM concentration. The plates were then incubated at 37° C. for 72 hours. The proliferative effect of the compounds was measured by a commercially available kit from Lonza (ViaLight Plus).

SMILES | Activity (%)
O=C(Nc1ccc2c(cnn2-c2ccc(NCC3CC3)cc2)c1)c1ccc(N2CCOCC2)cc1 [Compound 530] | 11%
O=C(Nc1ccc(Nc2ccc(NC(=O)c3ccc(N4CCC(O)CC4)cc3)cc2)cc1)c1ccc(N2CCC(O)CC2)cc1 [Compound 364, N,N′-(4,4′-Azanediylbis(4,1-phenylene))bis(4-(4-hydroxypiperidino)benzamide)] | 16%
O=C(Nc1ccc2[nH]c(-c3ccc(N4CCC5(CC4)OCCO5)cc3)nc2c1)c1ccc(N2CCOCC2)cc1 [Compound 413, N-(2-(4-(1,4-Dioxa-8-azaspiro[4,5]decan-8-yl)phenyl)-1H-benzimidazol-5-yl)-4-morpholinobenzamide] | 19%
CCn1c(C)ccc1C(=O)Nc1ccc(Nc2ccc(NC(=O)c3ccc(N4CCC(O)CC4)cc3)cc2)cc1 [Compound 900] | 24%
COc1cccc(/C=N/NC(=O)c2ccc(C(=O)NCCC(=O)NCCCCO)cc2)c1 [Compound 165, (E)-N-(3-((4-hydroxybutyl)amino)-3-oxopropyl)-4-(2-(3-methoxybenzylidene)hydrazinecarbonyl)benzamide] | 19%
O=C(Nc1ccc(Nc2ccc(NC(=O)c3cccc(O)c3)cc2)cc1)c1cccc(O)c1 [Compound 570, N,N′-(4,4′-Azanediylbis(4,1-phenylene))bis(3-hydroxybenzamide)] | 11%
Cn1ccc2cc(C(=O)N/N=C/c3cccc(/C=N/NC(=O)c4ccc5c(ccn5C)c4)c3)ccc21 [Compound 125, (N′,N′″E,N′,N′″E)-N′,N′″-(1,3-phenylenebis(methanylylidene))bis(1-methyl-1H-indole-5-carbohydrazide)] | 15%
COCCNC(=O)CCCn1ccc2cc(C(=O)N/N=C/c3cccc(-n4cccn4)c3)ccc21 [Compound 160, (E)-4-(5-(2-(3-(1H-pyrazol-1-yl)benzylidene)hydrazinecarbonyl)-1H-indol-1-yl)-N-(2-methoxyethyl)butanamide] | 22%
O=C(Nc1ccc(Nc2ccc(NC(=O)c3ccc4c(ccn4CCO)c3)cc2)cc1)c1ccc(N2CCC(O)CC2)cc1 [Compound 775] | 22%
O=C(Nc1ccc2[nH]c(-c3ccc(C(=O)NC4CC4)cc3)nc2c1)c1ccc(N2CCC(O)C2)cc1 (stereo not drawn) [Compound 240, N-cyclopropyl-4-(5-(4-(3-hydroxypyrrolidin-1-yl)benzamido)-1H-benzo[d]imidazol-2-yl)benzamide] | 15%
CN(C)c1ccc(-c2nc3cc(NC(=O)c4ccc(C(=O)NN)cc4)ccc3[nH]2)cc1 [Compound 273, N-(2-(4-(dimethylamino)phenyl)-1H-benzo[d]imidazol-5-yl)-4-(hydrazinecarbonyl)benzamide] | 16%
COc1cccc(/C=N/NC(=O)c2ccc(C(=O)Nc3ccc4nc(-c5ccc(N(C)C)cc5)[nH]c4c3)cc2)c1 [Compound 278, (E)-N-(2-(4-(dimethylamino)phenyl)-1H-benzo[d]imidazol-6-yl)-4-(2-(3-methoxybenzylidene)hydrazinecarbonyl)benzamide] | 23%
CS(=O)(=O)Nc1ccc2[nH]c(-c3ccc(C(=O)Nc4ccc(N5CCOCC5)cc4)cc3)nc2c1 [Compound 449] | 16%
Cn1cccc1C(=O)Nc1ccc(Oc2ccc(NC(=O)c3ccc(N4CCC(O)CC4)cc3)cc2)cc1 [Compound 915, N-(4-(4-(4-(4-Hydroxypiperidin-1-yl)benzamido)phenoxy)phenyl)-1-methyl-1H-pyrrole-2-carboxamide] | 17%
CCOC(=O)c1ccc(-n2ncc3cc(NC(=O)c4ccc(N5CCC(O)CC5)cc4)ccc32)cc1 [Compound 1030, Ethyl 4-(5-(4-(4-hydroxypiperidin-1-yl)benzamido)-1H-indazol-1-yl)benzoate] | 10%
Cc1noc(COc2ccc3nc(-c4ccc(C(=O)Nc5ccc6cc[nH]c6c5)cc4)[nH]c3c2)n1 [Compound 660, 4-(6-((3-Methyl-1,2,4-oxadiazol-5-yl)methoxy)-1H-benzo[d]imidazol-2-yl)-N-(1H-indol-6-yl)benzamide] | 14%
O=C(Nc1ccc(C(=O)c2ccc(NC(=O)c3cccc4cc[nH]c34)cc2)cc1)c1ccc(N2CCC(O)CC2)cc1 [Compound 690, N-(4-(4-(4-(4-Hydroxypiperidin-1-yl)benzamido)benzoyl)phenyl)-1H-indolyl-7-carboxamide] | 16%
COc1cccc(Nc2nc3cc(NC(=O)c4ccc5[nH]c(-c6ccc(N(C)C)cc6)nc5c4)ccc3[nH]2)c1 [Compound 439, N-(2-(3-Methoxyphenyl)amino-1H-benzimidazol-5-yl)-2-(4-dimethylaminophenyl)-1H-benzimidazole-5-carbamide] | 18%

SMILES | Activity (%)
CN(C)c1ccc(C(=O)Nc2ccc3c(cnn3-c3ccc(NC(=O)c4ccccc4)cc3)c2)cc1 [Compound 375, N-(1-(4-Benzamidophenyl)-1H-indazol-5-yl)-4-dimethylaminobenzamide] | 11%
O=C(Nc1ccc2c(cnn2-c2ccc(NC(=O)c3cnc4cc[nH]c4c3)cc2)c1)c1ccc(N2CCC(O)CC2)cc1 [Compound 1005, N-(4-(5-(4-(4-Hydroxypiperidin-1-yl)benzamido)-1H-indazol-1-yl)phenyl)-1H-pyrrolo[3,2-b]pyridine-6-carboxamide] | 13%
O=C(Nc1ccc(C(=O)c2ccc(NC(=O)c3ccc(N4CCCCC4)cc3)cc2)cc1)c1ccc(N2CCCCC2)cc1 [Compound 322, N,N′-(carbonylbis(4,1-phenylene))bis(4-(piperidin-1-yl)benzamide)] | 20%
CN(C)c1ccc(C(=O)Nc2ccc(-n3ccc4cc(NC(=O)c5ccc(N(C)C)cc5)ccc43)cc2)cc1 [Compound 370, N-(1-(4-(4-Dimethylaminobenzamido)phenyl)-1H-indol-5-yl)-4-dimethylaminobenzamide] | 18%
CN1CCN(c2ccc3nc(-c4ccc5[nH]c(-c6ccccc6)nc5c4)[nH]c3c2)CC1 [Compound 1710, 5-(6-(4-Methylpiperazino)-1H-benzimidazol-2-yl)-2-phenyl-1H-benzimidazole] | 11%
O=C(Nc1ccc(C(=O)c2ccc(NC(=O)c3ccsc3)cc2)cc1)c1ccc(N2CCOCC2)cc1 [Compound 490, N-(4-(4-(3-Thienylcarboxamido)benzoyl)phenyl)-4-morpholinobenzamide] | 15%
Nc1ccc(C(=O)Nc2ccc(Nc3ccc(NC(=O)c4ccc(N)cc4)cc3)cc2)cc1 [Compound 580, N,N′-(4,4′-Azanediylbis(4,1-phenylene))bis(4-aminobenzamide)] | 16%
O=C(Nc1ccc2[nH]c(-c3ccc(N4CCOCC4)cc3)nc2c1)c1ccc2nc(-c3ccc(N(CCO)CCO)cc3)[nH]c2c1 [Compound 288, 2-(4-(bis(2-hydroxyethyl)amino)phenyl)-N-(2-(4-morpholinophenyl)-1H-benzo[d]imidazol-5-yl)-1H-benzo[d]imidazole-6-carboxamide] | 17%
CON=C(c1ccc(NC(=O)c2ccc(N(C)CCO)cc2)cc1)c1ccc(NC(=O)c2ccc(N(C)CCO)cc2)cc1 [Compound 332, N,N′-(((methoxyimino)methylene)bis(4,1-phenylene))bis(4-((2-hydroxyethyl)(methyl)amino)benzamide)] | 18%
CN(C)c1ccc(C(=O)Nc2ccc3[nH]c(-c4ccc5nonc5c4)nc3c2)cc1 [Compound 186, N-(2-(benzo[c][1,2,5]oxadiazol-5-yl)-1H-benzo[d]imidazol-5-yl)-4-(dimethylamino)benzamide] | 15%
COc1ccc(/C=C/c2nc3cc(-c4ccc5nc(/C=C/c6ccc(OC)cc6)[nH]c5c4)ccc3[nH]2)cc1 [Compound 262, 2,2′-bis((E)-4-methoxystyryl)-1H,3′H-5,5′-bibenzo[d]imidazole] | 20%
CN(C)c1ccc(C(=O)Nc2ccc(-c3nc4cc(NC(=O)c5ccc(N(C)C)cc5)ccc4[nH]3)cc2)cc1 [Compound 1700, 4-Dimethylamino-N-(4-(5-(4-dimethylaminobenzamido)-1H-benzimidazol-2-yl)phenyl)benzamide] | 17%
O=C(Nc1ccc2[nH]c(-c3ccc(N4CCOCC4)nc3)nc2c1)c1ccc(N2CCOCC2)cc1 [Compound 256, 4-morpholino-N-(2-(6-morpholinopyridin-3-yl)-1H-benzo[d]imidazol-5-yl)benzamide] | 12%
COc1ccc(-c2nc3cc(NC(=O)c4cccs4)ccc3[nH]2)cc1 [Compound 210, N-(2-(4-methoxyphenyl)-1H-benzo[d]imidazol-5-yl)thiophene-2-carboxamide] | 17%
CC(=O)Nc1ccc(C(=O)c2ccc(NC(=O)c3ccc4c(ccn4C)c3)cc2)cc1 [Compound 349] | 11%
O=C(Nc1ccc2cc[nH]c2c1)c1ccc(-c2nc3ccc(-c4cccnc4)cc3[nH]2)cc1 [Compound 650, N-(1H-indol-6-yl)-4-(6-(pyridin-3-yl)-1H-benzo[d]imidazol-2-yl)-benzamide] | 13%
CCOC(=O)Cn1c(Cl)ccc1C(=O)Nc1ccc(Nc2ccc(NC(=O)c3ccc(N4CCC(O)CC4)cc3)cc2)cc1 [Compound 830, Ethyl 2-(2-chloro-5-((4-((4-(4-(4-hydroxypiperidin-1-yl)benzamido)phenyl)amino)phenyl)carbamoyl)-1H-pyrrol-1-yl)acetate] | 15%
NNC(=O)c1ccc(-c2nc3cc(NC(=O)c4ccc(N5CCCC5)cc4)ccc3[nH]2)cc1 [Compound 230, N-(2-(4-(hydrazinecarbonyl)phenyl)-1H-benzo[d]imidazol-5-yl)-4-(pyrrolidin-1-yl)benzamide] | 21%
